What was measured:
Phaedon cochleariae = Phaedon cochleariae - spray test; assay type: in vivo; settings: 500 g/ha, Chinese cabbage leaf discs, after 7 days
Description: 4. Phaedon cochleariae—Spray Test
Solvent: 78.0 parts by weight of acetone
• 1.5 parts by weight of dimethylformamide Emulsifier: alkylaryl polyglycol ether
(§1) To produce a suitable preparation of active compound, 1 part by weight of active compound is dissolved using the stated parts by weight of solvent and made up with water containing an emulsifier concentration of 1000 ppm until the desired concentration is attained. To produce further test concentrations, the preparation is diluted with emulsifier-containing water.
After 7 days, the efficacy in % is determined. 100% means that all the beetle larvae have been killed; 0% means that no beetle larvae have been killed.

Tetranychus urticae [1] = assay: Tetranychus urticae - spray test, OP-resistant (bean leaf discs, 6 days); assay type: in vivo; settings: 500 g/ha, after 6 days
Procedure, shortened: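 Bean leaf discs carrying all stages of OP-resistant Tetranychus urticae were sprayed with compound formulated in acetone/DMF and diluted in water with 1000 ppm emulsifier. Mortality was scored after 6 days as % efficacy, where 100% means all mites were killed.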

Boophilus microplus = Boophilus microplus - injection test; assay type: in vivo; settings: 20 μg/animal, injection into engorged adult female cattle ticks, assessed after 7 days
Description: 1. Boophilus microplus—Injection Test
Solvent: dimethyl sulphoxide
To produce a suitable preparation of active compound, 10 mg of active compound are mixed with 0.5 ml of solvent and the concentrate is diluted with solvent to the desired concentration.
1 μl of the active compound solution is injected into the abdomen of 5 engorged adult female cattle ticks (Boophilus microplus). The animals are transferred into dishes and kept in a climate-controlled room.
Efficacy is assessed after 7 days by laying of fertile eggs. Eggs which are not visibly fertile are stored in a climate-controlled cabinet until the larvae hatch after about 42 days. An efficacy of 100% means that none of the ticks has laid any fertile eggs; 0% means that all the eggs are fertile.

[2] = log P determination by HPLC on reversed-phase columns (C 18), analogous to OECD Guideline 117; assay type: physicochemical; settings: for logP[a]: method [a]; for logP[b]: method [b]
Procedure, shortened: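 Reversed-phase C18 HPLC per OECD 117, two conditions: [a] pH 2.7, 0.1% formic acid water/acetonitrile, log P(HCOOH); [b] pH 7.8, 0.001 M ammonium hydrogencarbonate/acetonitrile, log P(neutral). Both use a 10–95% acetonitrile gradient; values are interpolated from retention times against C3–C16 unbranched alkan-2-ones.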

Meloidogyne incognita = Meloidogyne incognita - test; assay type: in vivo; settings: 20 ppm, lettuce, after 14 days
Description: 2. Meloidogyne incognita—Test Solvent: 125.0 parts by weight of acetone To produce a suitable preparation of active compound, 1 part by weight of active compound is mixed with the stated amount of solvent and the concentrate is diluted with water to the desired concentration. Vessels are filled with sand, active compound solution, an egg/larvae suspension of the southern root-knot nematode (Meloidogyne incognita) and lettuce seeds. The lettuce seeds germinate and the plants develop. The galls develop on the roots. After 14 days, the nematicidal efficacy in % is determined by the formation of galls. 100% means that no galls were found; 0% means that the number of galls on the treated plants corresponds to the untreated control.

Myzus persicae = Myzus persicae - spray test; assay type: in vivo; settings: 500 g/ha, Chinese cabbage leaf discs, after 6 days
Description: 3. Myzus persicae—Spray Test Solvent: 78 parts by weight of acetone • • 1.5 parts by weight of dimethylformamide Emulsifier: alkylaryl polyglycol ether To produce a suitable preparation of active compound, 1 part by weight of active compound is dissolved using the stated parts by weight of solvent and made up with water containing an emulsifier concentration of 1000 ppm until the desired concentration is attained. To produce further test concentrations, the preparation is diluted with emulsifier-containing water. Discs of Chinese cabbage leaves (Brassica pekinensis) infested by all stages of the green peach aphid (Myzus persicae) are sprayed with an active compound preparation of the desired concentration. After 6 days, the efficacy in % is determined. 100% means that all the aphids have been killed; 0% means that no aphids have been killed.

Tetranychus urticae [3] = assay: Tetranychus urticae - spray test, OP-resistant (bean plants, 7 days); assay type: in vivo; settings: 20 ppm, after 7 days
Description: 6. Tetranychus urticae—Spray Test, OP-Resistant
Solvent: 7 parts by weight of dimethylformamide
Emulsifier: alkylaryl polyglycol ether
as §1, with “water. If the addition of ammonium salts or/and penetrants is required, these are each added in a concentration of 1000 ppm to the formulation solution.” for “water.”
Bean plants (Phaseolus vulgaris) heavily infested by all stages of the greenhouse red spider mite (Tetranychus urticae) are treated by spraying with the active compound preparation of the desired concentration.
After 7 days, the efficacy in % is determined. 100% means that all the spider mites have been killed; 0% means that no spider mites have been killed.

| SMILES | efficacy (beetle larvae killed) (Phaedon cochleariae) [%] | efficacy (spider mites killed) (Tetranychus urticae [1]) [%] | efficacy (laying of fertile eggs) (Boophilus microplus) [%] | logP[a] [2] | logP[b] [2] | nematicidal efficacy (formation of galls) (Meloidogyne incognita) [%] | efficacy (aphids killed) (Myzus persicae) [%] | efficacy (spider mites killed) (Tetranychus urticae [3]) [%] |
| --- | --- | --- | --- | --- | --- | --- | --- | --- |
| Cc1cc(F)c(N2C(=O)C(C)N(C(=O)NCC(F)(F)F)C2=O)cc1SCC(F)(F)F (racemic) [compound 79] | 100 | 100 | 100 | 3.55 | 3.56 | – | – | – |
| CCC(C)(C)NC(=O)N1CC(=O)N(c2cc(SCC(F)(F)F)c(C)cc2F)C1=O [compound 101] | 83 | 100 | – | 4.09 | 3.96 | 90 | – | – |
| Cc1cc(Cl)c(N2C(=O)CN(C(=O)Nc3cccc(CC(F)(F)F)c3)C2=O)cc1[S+]([O-])CC(F)(F)F (racemic) [compound 71] | 100 | 100 | – | 3.68 | 3.64 | 90 | – | – |
| Cc1cc(F)c(N2C(=O)CN(C(=O)Nc3cccc(Cl)c3)C2=O)cc1[S+]([O-])CC(F)(F)F (centres unmarked) [compound 48] | 83 | 100 | 100 | 3.31 | 3.25 | 90 | – | – |
| Cc1cc(F)c(N2C(=O)CN(C(=O)Nc3cccc(CC(F)(F)F)c3)C2=O)cc1[S+]([O-])CC(F)(F)F (centres unmarked) [compound 43] | 83 | 100 | 100 | 3.45 | 3.41 | 100 | – | – |
| Cc1cc(C)c(N2C(=O)CN(C(=O)NCC(F)(F)F)C2=O)cc1SCC(F)(F)F [compound 38] | 100 | 100 | – | 3.46 | 3.33 | – | – | – |
| O=C(NCC(F)(F)F)N1CC(=O)N(c2cc(SCC(F)(F)F)c(Cl)cc2Cl)C1=O [compound 106] | 83 | 100 | – | 3.5 | 3.53 | – | – | – |
| Cc1cc(F)c(N2C(=O)CN(C(=O)Nc3cccc(CC(F)(F)F)c3)C2=O)cc1SCC(F)(F)F [compound 37] | 83 | 100 | – | 4.32 | 4.24 | – | – | – |
| Cc1cc(Cl)c(N2C(=O)CN(C(=O)Nc3cccc(Cl)c3)C2=O)cc1[S+]([O-])CC(F)(F)F (racemic) [compound 72] | 100 | 100 | 100 | 3.55 | 3.50 | 90 | – | – |
| Cc1cc(F)c(N2C(=O)CN(C(=O)Nc3cccc(F)c3)C2=O)cc1[S+]([O-])CC(F)(F)F (centres unmarked) [compound 46] | – | 100 | 100 | 3.02 | 2.97 | – | 90 | – |
| Cc1cc(F)c(N2C(=O)CN(C(=O)NCC(F)(F)F)C2=O)cc1[S+]([O-])CC(F)(F)F (single isomer, unassigned) [Ex. No. 136] | – | – | – | 2.4 | 2.43 | – | – | 100 |
| Cc1cc(F)c(N2C(=O)CN(C(=O)NC(C)(C)C)C2=O)cc1SCC(F)(F)F [compound 54] | 100 | 100 | 100 | 3.84 | 3.71 | 100 | – | – |
